Results reported in patent US20240059693A1, “FUSED BICYCLIC PYRAZOLE DERIVATIVES AND METHODS OF USE THEREOF FOR THE TREATMENT OF HERPESVIRUSES” (Merck Sharp & Dohme LLC, priority 2020, published 2024).
Where two headings read alike, the source gives them in different places.

How the values were obtained:
[1] = molecular target: T1, Human cytomegalovirus DNA polymerase (Human cytomegalovirus, UniProt P08546); test: HCMV polymerase assay (AlphaLISA); assay type: biochemical; conditions: HCMV DNA polymerase 0.2 nM, 60 minutes at 37° C.; read-out: CMV (IC50)
T1 construct: made in house; host or cells: SF21 insect cells (baculovirus vector)
How it was run: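 Baculovirus/SF21-expressed polymerase (HCMV 0.2 nM; VZV 0.4 nM) pre-incubated 30 min at room temperature with compound in HEPES pH 7.5 buffer, then 60 min at 37 °C with 1.6 nM DIG-primer/template, sub-nM to 24 nM dNTPs and 0.8 nM biotin-dUTP. AlphaLISA detection; IC50 from 4-parameter fit.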

[2] = tested on: HSV2; test: Viral qPCR assay, HSV2 in Vero cells; assay type: cell-based, Herpes Simplex Virus type 2; conditions: read-out: HSV2 VERO Cell (EC50)
Description: (§1) MRCS cells, Vero cells, and MeWo cells were obtained from ATCC and were maintained at 37° C./5% CO2/90% relative humidity in Minimal Essential Medium with 10% fetal bovine serum, […] L-glutamine, 100 units/ml penicillin and 100 ug/ml streptomycin. Assay plates were prepared by dispensing compounds dissolved in DMSO into wells of 384 well collagen-coated plates using an ECHO acoustic dispenser. Each compound was tested in a 10-point, serial 3-fold dilution. Controls included uninfected cells and infected cells treated only with DMSO. Assays were initiated by mixing selected cells, in suspension, with virus, and dispensing 50 μl/well infected cells to pre-plated compounds. Plates were incubated at 37° C./5% CO2/90% relative humidity for ˜72 hrs to permit genomic replication, and infected cells were lysed by the addition of an equal volume of lysis buffer (10 mM Tris-HCl, pH8, 50 mM KCl, 2 mM MgCl2, 0.45% NP-40, 0.45% Tween-20, and 100 μg/ml proteinase K). An aliquot of the lysate was transferred to a 384-well PCR plate and incubated at 56° C. for 1 hour and then at 95° C. for 10 min. Levels of a viral gene and of the cellular control, PPIA (Thermo Fisher Assay ID=Hs04194521_s1), were measured in separate 10 μL qPCR assays using TaqMan® Gene Expression Master Mix (Applied Biosystems), and an 7900HT Fast Real-Time PCR System with 384-Well Block Module. 7-point, serial 10-fold dilutions of a plasmid standard were run on each plate to generate a standard curve, and genome copies numbers were calculated by plotting experimental Ct onto linear regression of the standard curve. Viral genome copy numbers were normalized by cellular control copy number, and compound effects were normalized to the window defined by the controls. Calculated % effects were fit using a 4-parameter algorithm, and EC50 was reported.
as §1, with “gene” for “gene and of the cellular control, PPIA (Thermo Fisher Assay ID=Hs04194521_s1),”, “in” for “in separate”, “Compound effects on viral” for “Viral”, “number” for “numbers were normalized by cellular control copy number, and compound effects”

[3] = tested on: HSV-1 Strain F; test: Viral qPCR assay, HSV-1 in Vero cells; assay type: cell-based, Herpes Simplex Virus type 1; conditions: read-out: HSV1 VERO Cell (EC50)
Description: as §1
as §1, with “gene” for “gene and of the cellular control, PPIA (Thermo Fisher Assay ID=Hs04194521_s1),”, “in” for “in separate”, “Compound effects on viral” for “Viral”, “number” for “numbers were normalized by cellular control copy number, and compound effects”
VZV: Strain Street was maintained as an infected cell stock in MRC-5 cells. It was assayed in MeWo or MRCS cells and was used at 0.04-0.1 pfu/cell. The assays were performed in growth medium. Primer-probe set was Thermo Fisher Assay ID=AIPAEXQ. HSV-1: Strain F Street was assayed in Vero or MRCS cells and was used at 0.0005-0.004 pfu/cell in growth medium. Primer-probe set was Thermo Fisher Assay ID=AIBJZIB

[4] = tested on: HCMV Strain AD169; test: Viral qPCR assay, HCMV in MRC-5 cells; assay type: cell-based, Human cytomegalovirus; conditions: read-out: CMV MRC5 Cell (EC50)
How it was run: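 MRC-5 cells infected in suspension with HCMV AD169 (0.05-0.1 pfu/cell) and added to 10-point 3-fold compound dilutions, in growth media or media with 50% FBS. After ~72 h at 37 °C, lysates analysed by TaqMan qPCR against a plasmid standard curve, viral copies normalised to PPIA or not. EC50 from 4-parameter fit.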

[5] = molecular target: T2, varicella zoster virus DNA polymerase (Varicella-zoster virus, UniProt P09252); test: VZV polymerase assay (AlphaLISA); assay type: biochemical; conditions: VZV DNA polymerase 0.4 nM, 60 minutes at 37° C.
T2 construct: made in house; host or cells: SF21 insect cells (baculovirus vector)
Description: Human cytomegalovirus and varicella zoster virus DNA polymerases were expressed via baculovirus vector in SF21 cells and purified. Heterodimeric nucleic acid substrate used in the herpesvirus polymerase reactions was generated by annealing a 59-mer template to a 17-mer digoxigenin-labeled primer. Polymerase (HCMV final concentration of 0.2 nM; VZV final concentration of 0.4 nM) was combined with an inhibitor compound or DMSO in assay buffer (10 mM HEPES, pH 7.5, 25 mM KCl, 25 mM NaCl, 5 mM MgCl2, 5% glycerol, 0.67 mg/ml bovine serum albuminutes, and 1 mM tris(2-carboxyethyl)phosphine), and this mixture was pre-incubated for 30 minutes at room temperature in 384-well microtiter plates. The polymerization reaction was initiated by the addition of template/primer substrate (final concentration: 1.6 nM), and dNTPs (final concentration: 24 nM dCTP, 24 nMdGTP, 16 nM dATP, 16 nM dTTP, and 0.8 nM biotin-dUTP). After 60 minutes incubation at 37° C., reactions were terminated with quench buffer (25 mM HEPES pH 7.5, 100 mM NaCl, 0.25% Tween-20, 12 mM EDTA, and 1 mg/ml bovine serum albumin). Incorporation of biotinylated UTP was detected with 2.5-ug/ml anti-DIG AlphaLISA acceptor beads and 5-10 ug/ml streptavidin AlphaLISA donor beads (Perkin Elmer). Compound effects were normalized to the window defined by the controls (DMSO only and pre-quenched wells) and were fit using a 4-parameter algorithm to report an IC50.

[6] = Human alphaherpesvirus 2, Vero, 72 h
[7] = Human alphaherpesvirus 1, Vero, 72 h
[8] = Human betaherpesvirus 5, AD169, MRC5, 72 h

T1 sequence (P08546 whole entry): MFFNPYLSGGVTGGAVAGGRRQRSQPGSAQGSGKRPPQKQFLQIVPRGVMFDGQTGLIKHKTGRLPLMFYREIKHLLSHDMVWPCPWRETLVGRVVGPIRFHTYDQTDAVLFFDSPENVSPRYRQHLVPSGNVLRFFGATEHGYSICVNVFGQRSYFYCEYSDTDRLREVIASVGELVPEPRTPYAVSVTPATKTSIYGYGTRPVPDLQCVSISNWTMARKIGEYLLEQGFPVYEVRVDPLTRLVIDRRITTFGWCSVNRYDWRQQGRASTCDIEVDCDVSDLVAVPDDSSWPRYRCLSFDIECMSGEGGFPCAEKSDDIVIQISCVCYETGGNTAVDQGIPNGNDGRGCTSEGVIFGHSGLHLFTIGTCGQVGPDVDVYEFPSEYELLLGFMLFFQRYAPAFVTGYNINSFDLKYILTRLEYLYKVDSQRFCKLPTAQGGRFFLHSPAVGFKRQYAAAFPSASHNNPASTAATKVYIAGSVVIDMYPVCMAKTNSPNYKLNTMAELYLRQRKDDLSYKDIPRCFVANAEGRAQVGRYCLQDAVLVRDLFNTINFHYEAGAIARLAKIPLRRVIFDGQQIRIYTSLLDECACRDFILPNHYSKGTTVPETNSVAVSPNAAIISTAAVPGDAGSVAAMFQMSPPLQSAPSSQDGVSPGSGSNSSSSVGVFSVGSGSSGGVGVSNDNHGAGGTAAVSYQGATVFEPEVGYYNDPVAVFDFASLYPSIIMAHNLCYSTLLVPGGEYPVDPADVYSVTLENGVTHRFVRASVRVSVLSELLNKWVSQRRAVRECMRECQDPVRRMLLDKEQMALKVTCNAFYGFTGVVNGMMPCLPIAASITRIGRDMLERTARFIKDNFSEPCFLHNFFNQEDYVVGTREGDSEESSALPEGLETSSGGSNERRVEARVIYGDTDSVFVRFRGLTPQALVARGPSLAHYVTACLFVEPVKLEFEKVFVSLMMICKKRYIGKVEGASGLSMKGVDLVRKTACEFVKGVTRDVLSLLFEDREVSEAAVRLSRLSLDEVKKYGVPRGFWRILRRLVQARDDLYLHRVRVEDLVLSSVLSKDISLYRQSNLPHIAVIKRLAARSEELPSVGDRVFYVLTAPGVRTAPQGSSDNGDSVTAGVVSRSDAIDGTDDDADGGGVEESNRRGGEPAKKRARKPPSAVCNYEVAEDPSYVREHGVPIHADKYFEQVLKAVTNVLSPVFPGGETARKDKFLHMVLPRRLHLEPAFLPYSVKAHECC
T2 sequence (P09252 whole entry): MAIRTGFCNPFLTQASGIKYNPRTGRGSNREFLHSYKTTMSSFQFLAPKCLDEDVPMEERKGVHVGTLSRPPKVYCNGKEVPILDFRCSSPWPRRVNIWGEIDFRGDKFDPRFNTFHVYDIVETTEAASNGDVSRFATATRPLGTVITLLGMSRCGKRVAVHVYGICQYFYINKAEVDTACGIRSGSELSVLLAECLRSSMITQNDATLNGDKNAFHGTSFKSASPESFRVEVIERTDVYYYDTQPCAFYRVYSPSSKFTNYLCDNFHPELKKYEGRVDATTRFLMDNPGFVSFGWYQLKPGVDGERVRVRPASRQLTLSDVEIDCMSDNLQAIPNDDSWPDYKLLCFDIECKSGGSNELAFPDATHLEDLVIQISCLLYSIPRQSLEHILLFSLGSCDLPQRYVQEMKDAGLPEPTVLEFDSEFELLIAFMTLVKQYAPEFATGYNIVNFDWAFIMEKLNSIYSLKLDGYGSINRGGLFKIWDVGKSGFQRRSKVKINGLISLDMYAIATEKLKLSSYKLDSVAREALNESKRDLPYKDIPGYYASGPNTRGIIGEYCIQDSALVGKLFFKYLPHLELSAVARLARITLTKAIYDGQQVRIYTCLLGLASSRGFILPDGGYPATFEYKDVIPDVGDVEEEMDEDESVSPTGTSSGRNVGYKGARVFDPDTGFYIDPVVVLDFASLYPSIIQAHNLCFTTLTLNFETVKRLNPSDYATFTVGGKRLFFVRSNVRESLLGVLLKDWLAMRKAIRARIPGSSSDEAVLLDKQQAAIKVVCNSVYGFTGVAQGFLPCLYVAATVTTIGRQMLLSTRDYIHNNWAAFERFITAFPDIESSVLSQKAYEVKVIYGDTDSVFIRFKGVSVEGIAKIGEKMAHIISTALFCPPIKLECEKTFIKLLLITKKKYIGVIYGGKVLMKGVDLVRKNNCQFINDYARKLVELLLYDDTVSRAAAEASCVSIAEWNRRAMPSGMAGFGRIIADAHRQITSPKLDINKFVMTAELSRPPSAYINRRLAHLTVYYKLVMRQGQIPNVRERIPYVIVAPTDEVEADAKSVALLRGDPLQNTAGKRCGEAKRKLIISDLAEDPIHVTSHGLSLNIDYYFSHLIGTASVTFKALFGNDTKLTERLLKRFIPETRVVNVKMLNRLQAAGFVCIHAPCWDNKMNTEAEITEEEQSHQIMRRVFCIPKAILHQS

Compound | IC50 [1] [nM] | EC50 [2, 6] [nM] | EC50 [3, 7] [nM] | EC50 [4, 8] [nM] | IC50 [5] [nM] | EC50 ([2]; ~72 hrs) [nM] | EC50 ([3]; ~72 hrs) [nM] | EC50 ([4]; MRC5 cells, ~72 hrs) [nM]
CCC1(Cn2nc(C(=O)NCc3ccc(Cl)cc3)c3c2CN(C[C@H]2CCC(=O)N2)C3)COC1 [Compound 40] | 89.1 | 34500 | 23300 | 5300 | 90.8 | – | – | –
O=C1CC[C@H](CC2Cc3c(C(=O)NCc4ccc(Cl)cc4)nn(CCN4CC(F)C4)c3C2)N1 (stereo partly shown) [Compound 132] | 21.6 | 9330 | 7160 | 2930 | 12.8 | – | – | –
Cn1nc(C(=O)NCc2ccc(Cl)cc2)c2c1CC(CC1CCC(=O)N1)C2 (single isomer, unassigned) [Compound 130] | 4.44 | – | – | – | 4.44 | 4120 | 3840 | 1200
CC(C)[C@H]1c2c(c(C(=O)NCc3ccc(Cl)cc3)nn2C)CN1C[C@@H]1CCC(=O)N1 [Compound 100] | 7.62 | 196 | 217 | 222 | 4.84 | – | – | –
CN1CC(n2nc(C(=O)NCc3ccc(Cl)cc3)c3c2CC(C[C@H]2CCC(=O)N2)C3)C1 (stereo partly shown) [Compound 137] | 174 | 55700 | 26100 | 7730 | 50 | – | – | –
O=C1CC[C@H](CN2Cc3c(C(=O)NCc4ccc(Cl)cc4)nn(CC4(F)COC4)c3C2)N1 [Compound 37] | 23.3 | 23400 | 15500 | 3280 | 60.8 | – | – | –
O=C1CC[C@H](CC2Cc3c(C(=O)NCc4ccc(Cl)cc4)nn(C4CN(CC5CC5)C4)c3C2)N1 (single isomer, unassigned) [Compound 136] | 119 | 2520 | 3520 | 980 | 16.5 | – | – | –
CN1CC(n2nc(C(=O)NCc3ccc(Cl)cc3)c3c2CC(C[C@@H]2CCC(=O)N2)C3)C1 (stereo partly shown) [Compound 138] | 170 | – | – | – | – | 5900 | 4310 | 1870
CCC1c2c(c(C(=O)NCc3ccc(Cl)cc3)nn2C)CN1CC1CCC(=O)N1 (single isomer, unassigned) [Compound 106] | 108 | – | – | – | 30.5 | 1550 | 1060 | 1170
CC(C)n1nc(C(=O)NCc2ccc(Cl)cc2)c2c1CN(C[C@H]1CCC(=O)N1)C2 [Compound 35] | 54.8 | 581 | 1850 | 2670 | 31 | – | – | –
Cn1nc(C(=O)NCc2ccc(Cl)cc2F)c2c1CN(C[C@H]1CCC(=O)N1)C2 [Compound 61] | 346 | 37700 | 30800 | 1980 | 192 | – | – | –
CC(C1CC(F)(F)C(=O)N1)N1Cc2c(C(=O)NCc3ccc(Cl)cc3)nn(C)c2C1 (stereo not shown) [Compound 86] | 18.2 | – | – | – | 37 | 2360 | 1710 | 616
Cn1nc(C(=O)NCc2ccc(Cl)cc2)c2c1CC(O)(CC1CCC(=O)N1)C2 (single isomer, unassigned) [Compound 140] | 63.2 | – | – | – | 26.5 | 705 | 439 | 2660
CC(C1CC(F)C(=O)N1)N1Cc2c(C(=O)NCc3ccc(Cl)cc3)nn(C)c2C1 (stereo not shown) [Compound 76] | 30 | – | – | – | 36.1 | 1590 | 1410 | 3610
C[C@@H]1c2c(C(=O)NCc3ccc(Cl)cc3)nn(C)c2CN1C[C@H]1CCC(=O)N1 [Compound 126] | 522 | – | – | – | 159 | 1960 | 1190 | 6110
Cn1nc(C(=O)NCc2ccc(Cl)cc2)c2c1CC(O)(C[C@H]1CCC(=O)N1)C2 (stereo partly shown) [Compound 139] | 50500 | – | – | – | – | 33000 | 99000 | 99000
O=C1CC[C@H](CN2Cc3c(C(=O)NCc4ccc(Cl)cc4)nn(CC4(CF)COC4)c3C2)N1 [Compound 41] | 111 | 30600 | 20400 | 6320 | 23.7 | – | – | –
CC1c2c(c(C(=O)NCc3ccc(Cl)cc3)nn2C)CN1C[C@H]1CCC(=O)N1 (single isomer, unassigned) [Compound 107] | 4540 | – | – | – | 1500 | 90300 | 73800 | 99000
O=C1CC[C@H](CN2Cc3c(C(=O)NCc4ccc(Cl)cc4)nn(CC4CCO4)c3C2)N1 (stereo partly shown) [Compound 39] | 54.9 | 16200 | 12400 | 1580 | 45.2 | – | – | –
O=C1CC[C@@H](CN2Cc3c(C(=O)NCc4ccc(Cl)cc4)nn(C(F)F)c3C2)N1 [Compound 46] | 69.7 | – | – | – | 23 | 530 | 211 | 706
O=C1CCC(CC2Cc3c(C(=O)NCc4ccc(Cl)cc4)nn(CCN4CC(F)(F)C4)c3C2)N1 (stereo not shown) [Compound 131] | 16.8 | 7020 | 7280 | 1580 | 11.7 | – | – | –
